Data as given in PubChem BioAssay AID270 (DTP/NCI, 2004).
Where “and” joins values, the source holds several entries; their conditions need not be identical. Equal entries are not always repeated. Inconclusive results are not listed.

System: BDF1 mice, s.c. Lewis lung carcinoma, T/C %
Assay: NCI In Vivo Anticancer Drug Screen. Data for tumor model Lewis Lung Carcinoma (subcutaneous) in B6D2F1 (BDF1) mice
Outline: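 First, mice carry a transplantable tumor. Next, groups receive either compound or vehicle. Finally, survival or tumor dimensions in the dosed animals are divided by the corresponding control figure.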

O=c1[nH]c(=O)n(C2CC(O)C(CO)O2)cc1F (stereo not drawn)
T/C (endpoint: mean tumor weight, dose: 10.0 mg/kg/injection, schedule: Q01DX011 (ip), vehicle: saline, higher = larger tumour): 82 % of control
T/C (endpoint: mean tumor weight, dose: 20.0 mg/kg/injection, schedule: Q01DX011 (ip), vehicle: saline, higher = larger tumour): 57 % of control
T/C (endpoint: mean tumor weight, dose: 26.0 mg/kg/injection, schedule: Q01DX011 (ip), vehicle: saline, higher = larger tumour): 45 % of control
T/C (endpoint: mean tumor weight, dose: 40.0 mg/kg/injection, schedule: Q01DX011 (ip), vehicle: other, higher = larger tumour): 17 % of control and 23 % of control
T/C (endpoint: mean tumor weight, dose: 40.0 mg/kg/injection, schedule: Q01DX011 (ip), vehicle: saline, higher = larger tumour): 25 % of control and 27 % of control
T/C (endpoint: mean tumor weight, dose: 60.0 mg/kg/injection, schedule: Q01DX011 (ip), vehicle: saline, higher = larger tumour): 17 % of control and 23 % of control
T/C (endpoint: mean tumor weight, dose: 80.0 mg/kg/injection, schedule: Q01DX011 (ip), vehicle: other, higher = larger tumour): 10 % of control
T/C (endpoint: mean tumor weight, dose: 80.0 mg/kg/injection, schedule: Q01DX011 (ip), vehicle: saline, higher = larger tumour): 18 % of control
T/C (endpoint: mean tumor weight, dose: 120.0 mg/kg/injection, schedule: Q01DX011 (ip), vehicle: saline, higher = larger tumour): 1 % of control
T/C (endpoint: mean tumor weight, dose: 160.0 mg/kg/injection, schedule: Q01DX011 (ip), vehicle: other, higher = larger tumour): 4 % of control
T/C (endpoint: median survival time, dose: 25.0 mg/kg/injection, schedule: Q01DX009 (ip), vehicle: saline, higher = longer survival): 90 % of control and 110 % of control and 114 % of control
T/C (endpoint: median survival time, dose: 36.0 mg/kg/injection, schedule: Q01DX011 (ip), vehicle: saline, higher = longer survival): 116 % of control
T/C (endpoint: median survival time, dose: 50.0 mg/kg/injection, schedule: Q01DX009 (ip), vehicle: saline with Tween-80, higher = longer survival): 116 % of control
T/C (endpoint: median survival time, dose: 50.0 mg/kg/injection, schedule: Q01DX009 (ip), vehicle: saline, higher = longer survival): 92 % of control and 98 % of control
T/C (endpoint: median survival time, dose: 80.0 mg/kg/injection, schedule: Q01DX011 (ip), vehicle: saline, higher = longer survival): 104 % of control
T/C (endpoint: median survival time, dose: 100.0 mg/kg/injection, schedule: Q01DX009 (ip), vehicle: saline with Tween-80, higher = longer survival): 95 % of control
T/C (endpoint: median survival time, dose: 119.0 mg/kg/injection, schedule: Q01DX011 (ip), vehicle: saline, higher = longer survival): 94 % of control
T/C (endpoint: median tumor weight (est.), dose: 25.0 mg/kg/injection, schedule: Q01DX009 (ip), vehicle: saline with Tween-80, higher = larger tumour): 72 % of control
T/C (endpoint: median tumor weight (est.), dose: 50.0 mg/kg/injection, schedule: Q01DX009 (ip), vehicle: saline with Tween-80, higher = larger tumour): 66 % of control
T/C (endpoint: median tumor weight (est.), dose: 100.0 mg/kg/injection, schedule: Q01DX009 (ip), vehicle: saline with Tween-80, higher = larger tumour): 32 % of control

O=c1n(CCCl)c(=O)n(CCCl)c(=O)n1CCCl
T/C (endpoint: mean tumor weight, dose: 25.0 mg/kg/injection, schedule: Q01DX011 (ip), vehicle: other, higher = larger tumour): 121 % of control
T/C (endpoint: mean tumor weight, dose: 50.0 mg/kg/injection, schedule: Q01DX011 (ip), vehicle: other, higher = larger tumour): 116 % of control
T/C (endpoint: mean tumor weight, dose: 100.0 mg/kg/injection, schedule: Q01DX011 (ip), vehicle: other, higher = larger tumour): 65 % of control
T/C (endpoint: mean tumor weight, dose: 200.0 mg/kg/injection, schedule: Q01DX011 (ip), vehicle: other, higher = larger tumour): 113 % of control
T/C (endpoint: mean tumor weight, dose: 400.0 mg/kg/injection, schedule: Q01DX011 (ip), vehicle: other, higher = larger tumour): 108 % of control

NC(=NCc1ccccc1)c1ccc(N=C(N)c2ccc(C(N)=Nc3ccc(C(N)=NCc4ccccc4)cc3)cc2)cc1
T/C (endpoint: median survival time, dose: 2.5 mg/kg/injection, schedule: Q01DX009 (ip), vehicle: saline, higher = longer survival): 113 % of control
T/C (endpoint: median survival time, dose: 5.0 mg/kg/injection, schedule: Q01DX009 (ip), vehicle: saline, higher = longer survival): 107 % of control
T/C (endpoint: median survival time, dose: 10.0 mg/kg/injection, schedule: Q01DX009 (ip), vehicle: saline, higher = longer survival): 111 % of control

CCC(CCC(C)C1CCC2C3CC=C4CC(OC(=O)CCC(=O)O)CCC4(C)C3CCC12C)C(C)C (stereo not drawn)
T/C (endpoint: mean tumor weight, dose: 200.0 mg/kg/injection, schedule: Q01DX011 (ip), vehicle: water, higher = larger tumour): 63 % of control
T/C (endpoint: mean tumor weight, dose: 400.0 mg/kg/injection, schedule: Q01DX011 (ip), vehicle: water, higher = larger tumour): 38 % of control
T/C (endpoint: mean tumor weight, dose: 450.0 mg/kg/injection, schedule: Q01DX011 (ip), vehicle: water, higher = larger tumour): 59 % of control
T/C (endpoint: mean tumor weight, dose: 600.0 mg/kg/injection, schedule: Q01DX011 (ip), vehicle: water, higher = larger tumour): 31 % of control

CO[C@H]1Nc2c(ccc(C)c2O)C(=O)N2C=C(/C=C/C(N)=O)C[C@@H]12
T/C (endpoint: median survival time, dose: 0.03 mg/kg/injection, schedule: Q04DX003 (ip), vehicle: saline with Tween-80, higher = longer survival): 92 % of control
T/C (endpoint: median survival time, dose: 0.04 mg/kg/injection, schedule: Q04DX003 (ip), vehicle: saline with Tween-80, higher = longer survival): 103 % of control
T/C (endpoint: median survival time, dose: 0.06 mg/kg/injection, schedule: Q04DX003 (ip), vehicle: saline with Tween-80, higher = longer survival): 89 % of control and 98 % of control
T/C (endpoint: median survival time, dose: 0.13 mg/kg/injection, schedule: Q04DX003 (ip), vehicle: saline with Tween-80, higher = longer survival): 98 % of control
T/C (endpoint: median survival time, dose: 0.25 mg/kg/injection, schedule: Q04DX003 (ip), vehicle: saline with Tween-80, higher = longer survival): 99 % of control
T/C (endpoint: median survival time, dose: 50.0 micrograms/kg/injection, schedule: Q04DX003 (ip), vehicle: saline + alcohol, higher = longer survival): 107 % of control
T/C (endpoint: median survival time, dose: 100.0 micrograms/kg/injection, schedule: Q04DX003 (ip), vehicle: saline + alcohol, higher = longer survival): 106 % of control
T/C (endpoint: median survival time, dose: 200.0 micrograms/kg/injection, schedule: Q04DX003 (ip), vehicle: saline + alcohol, higher = longer survival): 97 % of control

CN(C)N=Nc1n[nH]nc1C(N)=O
T/C (endpoint: median tumor weight (est.), dose: 134.5 mg/kg/injection, schedule: Q01DX009 (ip), vehicle: saline, higher = larger tumour): 102 % of control
T/C (endpoint: median tumor weight (est.), dose: 269.0 mg/kg/injection, schedule: Q01DX009 (ip), vehicle: saline, higher = larger tumour): 81 % of control
T/C (endpoint: median tumor weight (est.), dose: 538.0 mg/kg/injection, schedule: Q01DX009 (ip), vehicle: saline, higher = larger tumour): 79 % of control
